Results published in patent US8530648B2, “Diaza-spiro[5.5]undecanes” (Novartis AG, priority 2009, dated 2013).

Assays:
[1] = biological target: T1, hOx1R (Homo sapiens (Human), UniProt O43613); test: Calcium accumulation in cells (FLIPR), hOx1R; assay type: cell-based; conditions: inhibition of orexin A induced calcium accumulation, Cheng and Prusoff correction
How it was run: (§1)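 Cells expressing human orexin 1 or 2 receptor, serum-deprived overnight, loaded with Fluo-4-AM (2 μM) plus 0.1 mM probenecid, pH 7.4 HEPES buffer with 1% BSA.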

[2] = biological target: T2, hOx2R (Homo sapiens (Human), UniProt O43614); test: Calcium accumulation in cells (FLIPR), hOx2R; assay type: cell-based; conditions: inhibition of orexin A induced calcium accumulation, Cheng and Prusoff correction
How it was run: as §1

[3] = biological target: T1, hOx1R; test: Radioligand binding assay, [125I]orexin A, hOx1R; conditions: radioligand [125I]orexin A, competition
Procedure: (§2) For crude cell membrane preparations, cells (CHO, Chinese hamster ovary or HEK, human embryonic kidney) expressing human orexin 1 or human orexin 2 receptors, were washed with HEPES (10 mM, pH 7.5), scraped off the culture plates with the same buffer, and centrifuged at 4° C. for 5 min at 2500×g. The cell pellet was either stored at −80° C. or used directly. Before the experiments, cell membranes were re-suspended in binding assay buffer (10 mM HEPES, 0.5% (w/v) bovine serum albumin, pH 7.5) by homogenisation with a Polytron homogeniser at 50 Hz for 20 s. Cell membranes were also used as made available by commercial providers.
(§3) In initial saturation experiments (to calculate Bmax), cell homogenates (150 μl) were incubated with 25-300 pM of the radioligand ([^125I]orexin A, 50 μl), 8 concentrations in triplicates in the presence or absence Orexin A (1 μM, 50 μl) to define non specific binding. Bound radioactivity was measured, and data were analysed with the program XLFIT or Graphpad Prism. Protein concentration was determined according to the Bradford/BioRad Protein Assay Kit.
(§4) In competition experiments, cell homogenates (150 μl) were incubated in assay buffer (10 mM HEPES, pH 7.5, 0.5% (w/v) bovine serum albumin, 5 mM MgCl2, 1 mM CaCl2, and tween 0.05%) for 1 h at room temperature with about 100 pM of the radioligand ([^125I]orexin A, 2100 Ci/mmole, 50 μl), and with various concentrations of compounds of the invention (50 μl) in triplicates; non-specific binding was determined in the presence of Orexin A (1 μM). Reactions were terminated by vacuum filtration, 3 washes of ice cold wash buffer (Tris-HCl pH 7.4/10 mM, with NaCl 154 mM).

[4] = biological target: T2, hOx2R; test: Radioligand binding assay, [125I]orexin A, hOx2R; conditions: radioligand [125I]orexin A, competition
Procedure: as §2, §3, §4

[5] = tested on: C75/Bl6 mice; test: Beam Braking Motor Activity Behavior (BBM); assay type: in vivo; conditions: 100 mg/kg p.o.; for BBM: induced inactivity vs controls: in the first 3 hours
Procedure: Beam Braking Motor Activity Behavior (BBM)
In the morning (9:00 h) of experimental day 1, the animals (C75/Bl6 mice; Janvier, France) are singly placed into home cages (Type 3, only containing sawdust, as well as food and water ad libitum). The cages are put into frames equipped with infrared beams to record the activity/inactivity of the mice (Moti 4.25, TSE Systems, Germany). The first 1.5 days are used for habituation (see Figure). Five minutes before lights-off of the second day, the animals (n=6/groups) are orally treated with vehicle, the compounds or a positive control (e.g. almorexant 100 mg/kg). Then, the animals stay in the setups for the following lights-off period and activity monitored.
The data are expressed as means±SEM (standard error of the means) of these difference scores for each hour as well as for the first four hours after administration, the time period which is most sensible to the effects of sleep-promoting compounds. Statistical analysis of the data is done with Systat 11 software. Since the data are normally distributed, analysis of variance (ANOVA) with treatment as between subject factor and the Dunnett test for post-hoc pairwise comparison were used. Furthermore, Student t-tests are used for single pair wise comparisons.

[6] = tested on: C75/Bl6 mice; test: Sleep Electroencephalography (Sleep EEG); assay type: in vivo; conditions: 100 mg/kg p.o.
Procedure: Sleep Electroencephalography (Sleep EEG):
The sleep pattern of tethered mice (C75/Bl6 mice; Janvier, France), chronically implanted with cortical EEG electrodes and an EMG electrode (neck muscle), is scored using the rodent scoring module of Somnologica software. Activity is monitored with an infrared sensor placed in the top of the cage and video recordings are collected with a day/night camera and infrared light during the dark phase (12 hours, lights off at 15:00). Mice are repeatedly acclimated to the recording setup and for a minimum of 3 days before each experiment. All treatments occur 5-10 min before lights off. On Day 1 mice are handled and the oral gavage introduced without application, on Day 2 vehicle is applied, on Day 3 compound is applied, and on Day 4 vehicle is applied. 22 hour recordings are scored in 10 s epochs and the total minutes per hour in Active wake (wake with locomotion), Quiet wake, and sleep are determined. Significance (p<0.05) is tested between vehicle and compound with Systat12 using the Restricted Maximum Likelihood test followed by post-hoc analysis using Fisher's Least Significant Differences test when either treatment or the interaction between treatment and hour had p<0.05.

T1 sequence (O43613 whole entry): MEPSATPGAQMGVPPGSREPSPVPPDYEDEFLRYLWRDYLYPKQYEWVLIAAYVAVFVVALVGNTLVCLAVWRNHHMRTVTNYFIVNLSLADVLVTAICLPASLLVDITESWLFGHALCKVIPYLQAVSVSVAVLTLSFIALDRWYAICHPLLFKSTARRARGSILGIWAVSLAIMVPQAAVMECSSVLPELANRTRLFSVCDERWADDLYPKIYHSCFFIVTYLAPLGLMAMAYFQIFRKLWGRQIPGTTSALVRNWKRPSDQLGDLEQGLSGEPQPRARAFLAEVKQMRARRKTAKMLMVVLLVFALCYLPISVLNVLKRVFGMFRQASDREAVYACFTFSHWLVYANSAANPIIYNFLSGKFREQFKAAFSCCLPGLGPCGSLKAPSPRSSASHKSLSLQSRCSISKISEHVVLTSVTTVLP
T2 sequence (O43614 whole entry): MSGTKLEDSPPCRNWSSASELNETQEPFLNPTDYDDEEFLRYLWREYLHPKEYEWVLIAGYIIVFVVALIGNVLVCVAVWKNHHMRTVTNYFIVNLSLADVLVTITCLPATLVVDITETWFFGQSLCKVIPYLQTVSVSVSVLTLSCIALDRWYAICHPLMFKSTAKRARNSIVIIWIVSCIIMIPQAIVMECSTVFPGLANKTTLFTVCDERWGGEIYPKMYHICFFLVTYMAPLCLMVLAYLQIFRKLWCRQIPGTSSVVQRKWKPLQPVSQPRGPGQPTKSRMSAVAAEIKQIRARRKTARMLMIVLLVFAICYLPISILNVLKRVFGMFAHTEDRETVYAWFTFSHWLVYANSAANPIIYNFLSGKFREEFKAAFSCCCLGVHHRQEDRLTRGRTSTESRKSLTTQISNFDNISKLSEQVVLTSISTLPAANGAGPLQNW

Compound | Ki [1] | Ki [2] | Kd [3] | Kd [4] | BBM: duration of induced inactivity [5] | BBM: induced inactivity vs controls [5] | Sleep EEG: duration of reduced active wake and increased sleep [6] | Sleep EEG: effect on quiet wake [6] | Sleep EEG: reduction of active wake and increase of sleep vs controls [6]
O=C1N(Cc2c[nH]c3ccccc23)CCCC12CCN(c1cnc3ccccc3n1)CC2 [Example 1, 2-((1H-indol-3-yl)methyl)-9-(quinoxalin-2-yl)-2,9-diazaspiro[5.5]undecan-1-one] | 0.314 µM | 0.03 µM | 0.374 µM | 0.042 µM | 6 to 7 h | 15-22 minutes/hour | up to 7 hours | minimal effects | 7-16 minutes/hour
CNC(=O)[C@@H](c1ccccc1)N1CCc2cc(OC)c(OC)cc2[C@@H]1CCc1ccc(C(F)(F)F)cc1 [almorexant, reference compound] | – | – | – | – | 5 to 7 h | 18-21 minutes/hour | 5 to 6 h | without noticeable effect | 9-16 minutes/hour
